# PMC4030617 (Biochemistry, 2009)
# Several values for one entry are separate records, joined by “and”; a condition that tells them apart may be missing. Equal values may be shown once.
# Tests used:
# [1] = target: T1, SHV Asn276Asp β-lactamase (Klebsiella pneumoniae, UniProt P0AD64, N270D); test: Steady-state substrate hydrolysis kinetics, Asn276Asp; assay type: biochemical; details: for Km: PBS pH 7.4, room temperature
# [2] = tested on: E. coli DH10B expressing SHV Asn276Pro, -Trp; test: microbe, parasite or virus in culture; assay type: cell-based; details: Escherichia coli
# [3] = tested on: E. coli DH10B expressing SHV Asn276Lys, -Arg, -Tyr, -Phe; test: microbe, parasite or virus in culture; assay type: cell-based; details: Escherichia coli
# [4] = tested on: E. coli DH10B expressing SHV Asn276Gly; test: microbe, parasite or virus in culture; assay type: cell-based; details: Escherichia coli
# [5] = tested on: E. coli DH10B expressing SHV Asn276Thr; test: microbe, parasite or virus in culture; assay type: cell-based; details: Escherichia coli
# [6] = tested on: E. coli DH10B expressing SHV-1; test: MIC, agar dilution, strain expressing SHV-1; details: Escherichia coli
# [7] = tested on: E. coli DH10B expressing SHV Asn276Gln, -Glu, -Cys; test: microbe, parasite or virus in culture; assay type: cell-based; details: Escherichia coli
# [8] = tested on: E. coli DH10B; test: MIC, lysogeny broth agar dilution, host strain; details: Escherichia coli
# [9] = tested on: E. coli DH10B expressing SHV Asn276His; test: microbe, parasite or virus in culture; assay type: cell-based; details: Escherichia coli
# [10] = tested on: E. coli DH10B expressing SHV Asn276Val; test: microbe, parasite or virus in culture; assay type: cell-based; details: Escherichia coli
# [11] = tested on: E. coli DH10B expressing SHV Asn276Met; test: microbe, parasite or virus in culture; assay type: cell-based; details: Escherichia coli
# [12] = tested on: E. coli DH10B expressing SHV Asn276Asp; test: microbe, parasite or virus in culture; assay type: cell-based; details: Escherichia coli
# [13] = tested on: E. coli DH10B expressing SHV Asn276Ala, -Leu, -Ile; test: microbe, parasite or virus in culture; assay type: cell-based; details: Escherichia coli
# [14] = tested on: E. coli DH10B expressing SHV Asn276Ser; test: microbe, parasite or virus in culture; assay type: cell-based; details: Escherichia coli
# [15] = tested on: E. coli DH10B expressing SHV Asn276 variants; test: MIC, agar dilution, all Asn276 variants taken together; details: for MIC of Asn276 variants compared to SHV-1: all Asn276 variants vs SHV-1, in words
# [16] = target: T1, SHV Asn276Asp β-lactamase; test: Inactivation kinetics; assay type: biochemical; details: Asn276Asp vs SHV-1
# [17] = target: T1, SHV Asn276Asp β-lactamase; test: Partition ratio; assay type: biochemical; details: rate of inhibitor hydrolysis, calculated
# [18] = target: T2, SHV-1 β-lactamase (Klebsiella pneumoniae, UniProt P0AD64); assay type: biochemical
# [19] = target: T1, SHV Asn276Asp β-lactamase; test: Direct competition assay against nitrocefin; assay type: biochemical; details: for increase in Ki for Asn276Asp as compared to SHV-1: Asn276Asp vs SHV-1
# [20] = target: T2, SHV-1 β-lactamase; test: biochemical
# [21] = tested on: CC1(C)S[C@@H]2[C@H](NC(=O)[C@H](N)c3ccccc3)C(=O)N2[C@H]1C(=O)O; test: purified protein, by the assay type; details: other: SHV-1, substrate hydrolysis, PBS pH 7.4, room temperature
# [22] = tested on: CCN1CCN(C(=O)N[C@@H](C(=O)N[C@@H]2C(=O)N3[C@@H]2SC(C)(C)[C@@H]3C(=O)O)c2ccccc2)C(=O)C1=O; test: purified protein, by the assay type; details: other: SHV-1, substrate hydrolysis, PBS pH 7.4, room temperature
# [23] = tested on: CC(=O)OCC1=C(C(=O)O)N2C(=O)[C@@H](NC(=O)Cc3cccs3)[C@H]2SC1; test: purified protein, by the assay type; details: other: SHV-1, substrate hydrolysis, PBS pH 7.4, room temperature
# [24] = tested on: O=C(Cc1cccs1)N[C@@H]1C(=O)N2C(C(=O)O)=C(/C=C/c3ccc([N+](=O)[O-])cc3[N+](=O)[O-])CS[C@H]12; test: purified protein, by the assay type; details: other: SHV-1, substrate hydrolysis, PBS pH 7.4, room temperature
Compound,kcat [1],Km [1],MIC [2],MIC [3],MIC [4],MIC [5],MIC [6],MIC [7],MIC [8],MIC [9],MIC [10],MIC [11],MIC [12],MIC [13],MIC [14],further results
"O=C(Cc1cccs1)N[C@@H]1C(=O)N2C(C(=O)O)=C(/C=C/c3ccc([N+](=O)[O-])cc3[N+](=O)[O-])CS[C@H]12 [Nitrocefin, nitrocefin]",137 ± 14 s⁻¹,28 ± 3 µM,–,–,–,–,–,–,–,–,–,–,–,–,–,–
CC1(C)S[C@@H]2[C@H](NC(=O)[C@H](N)c3ccccc3)C(=O)N2[C@H]1C(=O)O [ampicillin],989 ± 99 s⁻¹,134 ± 13 µM,8 to 16 µg/mL,64 µg/mL,4100 µg/mL,1020 to 2050 µg/mL,> 16400 µg/mL,1020 to 2050 µg/mL,1 µg/mL,1020 µg/mL,2050 µg/mL,32 µg/mL,8190 µg/mL,256 to 512 µg/mL,4100 µg/mL,–
CO/N=C(\C(=O)N[C@@H]1C(=O)N2C(C(=O)O)=C(COC(C)=O)CS[C@H]12)c1csc(N)n1 [cefotaxime],–,–,–,–,–,–,–,–,–,–,–,–,–,–,–,MIC of Asn276 variants compared to SHV-1 [15]: comparable to SHV-1
CC(=O)OCC1=C(C(=O)O)N2C(=O)[C@@H](NC(=O)Cc3cccs3)[C@H]2SC1 [cephalothin],10 ± 1 s⁻¹,83 ± 11 µM,4 to 8 µg/mL,4 to 8 µg/mL,16 µg/mL,8 to 16 µg/mL,64 to 128 µg/mL,8 to 16 µg/mL,4 µg/mL,16 µg/mL,16 µg/mL,4 µg/mL,8 to 16 µg/mL,4 to 8 µg/mL,16 µg/mL,"MIC, range over the variants at Asn276 ([15]; each of the variants at Asn276): 4 to 16 µg/mL"
O=C(O)[C@H]1/C(=C/CO)O[C@@H]2CC(=O)N21 [clavulanate],–,–,–,–,–,–,–,–,–,–,–,–,–,–,–,increase in KI for Asn276Asp as compared to SHV-1 [16]: 1.6 fold; kcat [17]: 0.75 ± 0.18 s⁻¹; kcat [18]: 0.60 ± 0.17 s⁻¹; increase in Ki for Asn276Asp as compared to SHV-1 [19]: 5 fold and 5.4 fold
C[C@@H](O)[C@H]1C(=O)N2C(C(=O)O)=C(S[C@@H]3CN[C@H](C(=O)N(C)C)C3)[C@H](C)[C@H]12 [meropenem],–,–,–,–,–,–,–,–,–,–,–,–,–,–,–,"Ki [20]: 31 ± 3 µM; MIC of Asn276 variants compared to SHV-1 [15]: comparable to SHV-1; increase in Ki for Asn276Asp as compared to SHV-1 [19]: 46 fold; Ki ([19]; Ki, Asn276Asp, competition with NCF, corrected for NCF affinity): 1411 ± 14 µM"
CCN1CCN(C(=O)N[C@@H](C(=O)N[C@@H]2C(=O)N3[C@@H]2SC(C)(C)[C@@H]3C(=O)O)c2ccccc2)C(=O)C1=O [piperacillin],976 ± 98 s⁻¹,105 ± 18 µM,2 to 4 µg/mL,8 to 16 µg/mL,256 µg/mL,128 to 256 µg/mL,2050 µg/mL,64 to 128 µg/mL,1 µg/mL,256 µg/mL,512 µg/mL,4 µg/mL,512 µg/mL,16 to 32 µg/mL,512 µg/mL,–
SHV-1 β-lactamase (Klebsiella pneumoniae),–,–,–,–,–,–,–,–,–,–,–,–,–,–,–,Km [21]: 183 ± 34 µM; kcat [21]: 3100 ± 300 s⁻¹; kcat/Km [21]: 1.7e+07 ± 4e+06 M⁻¹ s⁻¹; Km [22]: 77 ± 7 µM; kcat [22]: 898 ± 90 s⁻¹; kcat/Km [22]: 1.2e+07 ± 1e+06 M⁻¹ s⁻¹; Km [23]: 29 ± 1 µM; kcat [23]: 14 ± 1 s⁻¹; kcat/Km [23]: 470000 ± 30000 M⁻¹ s⁻¹; Km [24]: 21 ± 3 µM; kcat [24]: 237 ± 24 s⁻¹; kcat/Km [24]: 1.1e+07 ± 2e+06 M⁻¹ s⁻¹
